From ChEMBL document CHEMBL2413038, “Synthesis and bioevaluation of novel 4-aminoquinoline-tetrazole derivatives as potent antimalarial agents” (Eur J Med Chem, 2013) come the findings set out here.

Data set [1] has as its system Plasmodium yoelii. Nature of the data set: Antimalarial activity against chloroquine-resistant Plasmodium yoelii N-67 infected in Swiss mouse assessed as cured animal at 10 mg/kg, po for 4 days measured on day 28 post infection. It counts as functional, organism-based. Details: dose 10 mg/kg.
Data set [2] relates to Rattus norvegicus. As to the kind of experiment: Tmax in Sprague-Dawley rat at 5 mg/kg, po. It counts as ADME, organism-based. Details: dose 5 mg/kg, route oral. Conditions: in vivo.
In data set [3] the test system is Rattus norvegicus. Nature of the data set: Volume of distribution in Sprague-Dawley rat at 5 mg/kg, po. Details: dose 5 mg/kg, route oral. It counts as ADME, organism-based. Conditions: in vivo.
Data set [4] deals with Plasmodium yoelii. Nature of the data set: Antimalarial activity against chloroquine-resistant Plasmodium yoelii N-67 infected in Swiss mouse assessed as mean survival time at 10 mg/kg, po for 4 days. It counts as functional.
Data set [5] has as its system Rattus norvegicus. Nature of the data set: Elimination half life in Sprague-Dawley rat at 5 mg/kg, po. Details: dose 5 mg/kg, route oral. Conditions: in vivo. It counts as ADME, organism-based.
The test system of another data set is Plasma. Nature of the data set: Inhibition of beta-hematin formation in Plasmodium yoelii-infected Swiss albino mouse plasma using hemin as substrate after 16 hrs. It counts as functional, cell-free.
The nature of data set [6]: Clearance in Sprague-Dawley rat at 5 mg/kg, po. It counts as ADME, organism-based. Set-up: dose 5 mg/kg, route oral. Conditions: in vivo.
Data set [7] has as its system Plasmodium yoelii. As to the kind of experiment: Antimalarial activity against chloroquine-resistant Plasmodium yoelii N-67 infected in Swiss mouse assessed as mouse survival at 10 mg/kg, ip qd for 4 days measured on day 28 post infection. It counts as functional, organism-based. Details: dose 10 mg/kg.
Data set [8] concerns Rattus norvegicus. Nature of the data set: AUC (0 to t) in Sprague-Dawley rat at 5 mg/kg, po. Conditions: in vivo. Details: dose 5 mg/kg, route oral. It counts as ADME, organism-based, Plasma.
Data set [9] deals with Plasmodium falciparum. As to the kind of experiment: Antimalarial activity against chloroquine-resistant Plasmodium falciparum K1 after 72 hrs by MSF assay. It counts as functional, organism-based. Conditions: K1, 72 h.
Data set [10] can be described thus: Clearance in Sprague-Dawley rat at 10 mg/kg, po. It counts as ADME, organism-based. Set-up: dose 10 mg/kg, route oral. Conditions: in vivo.
Data set [11] has as its system Plasmodium yoelii. Nature of the data set: Antimalarial activity against chloroquine-resistant Plasmodium yoelii N-67 infected in Swiss mouse assessed as mean survival time at 50 mg/kg, ip qd for 4 days. It counts as functional. Conditions: route intraperitoneal.
The test system of data set [12] is Plasmodium yoelii. As to the kind of experiment: Antimalarial activity against chloroquine-resistant Plasmodium yoelii N-67 infected in Swiss mouse assessed as mouse survival at 100 mg/kg, po qd for 4 days measured on day 28 post infection relative to control. It counts as functional.
The nature of data set [13]: Cmax in Sprague-Dawley rat at 10 mg/kg, po. It counts as ADME, organism-based. Set-up: dose 10 mg/kg, route oral. Conditions: in vivo.
The nature of data set [14]: Selectivity index, ratio of CC50 for African green monkey Vero cells to IC50 for Plasmodium falciparum. It counts as functional.
For data set [15], the system named is Plasmodium falciparum. Nature of the data set: Antimalarial activity against chloroquine-sensitive Plasmodium falciparum 3D7 after 72 hrs by MSF assay. Conditions: 3D7, 72 h. It counts as functional, organism-based.
For data set [16], the system named is Plasmodium yoelii. As to the kind of experiment: Antimalarial activity against chloroquine-resistant Plasmodium yoelii N-67 infected in Swiss mouse assessed as mean survival time at 100 mg/kg, po qd for 4 days. It counts as functional.
A short description of data set [17]: AUC (0 to t) in Sprague-Dawley rat at 10 mg/kg, po. It counts as ADME, organism-based. Details: dose 10 mg/kg, route oral. Conditions: plasma.
Data set [18] relates to Plasmodium yoelii. Nature of the data set: Antimalarial activity against chloroquine-resistant Plasmodium yoelii N-67 infected in Swiss mouse assessed as cured animal at 100 mg/kg, po for 4 days measured on day 28 post infection relative to control. It counts as functional.
Data set [19] has as its system Plasmodium yoelii. As to the kind of experiment: Antimalarial activity against chloroquine-resistant Plasmodium yoelii N-67 infected in Swiss mouse assessed as suppression of parasitaemia level at 100 mg/kg, po qd for 4 days relative to control. It counts as functional.
Data set [20] has as its system Plasmodium yoelii. As to the kind of experiment: Antimalarial activity against chloroquine-resistant Plasmodium yoelii N-67 infected in Swiss mouse assessed as cured animal at 50 mg/kg, ip qd for 4 days measured on day 28 post infection relative to control. It counts as functional. Conditions: route intraperitoneal.
A short description of data set [21]: Tmax in Sprague-Dawley rat at 10 mg/kg, po. It counts as ADME, organism-based. Details: dose 10 mg/kg, route oral. Conditions: in vivo.
Data set [22] deals with Plasmodium falciparum. As to the kind of experiment: Resistance index, ratio of IC50 for chloroquine-resistant Plasmodium falciparum K1 to IC50 for chloroquine-sensitive Plasmodium falciparum 3D7. It counts as functional.
Data set [23] concerns Plasmodium yoelii. Nature of the data set: Antimalarial activity against chloroquine-resistant Plasmodium yoelii N-67 infected in Swiss mouse assessed as mouse survival at 50 mg/kg, ip qd for 4 days measured on day 28 post infection relative to control. Conditions: route intraperitoneal. It counts as functional.
Data set [24] concerns Rattus norvegicus. As to the kind of experiment: Volume of distribution in Sprague-Dawley rat at 10 mg/kg, po. It counts as ADME, organism-based. Set-up: dose 10 mg/kg, route oral. Conditions: in vivo.
Data set [25] concerns Plasmodium yoelii. As to the kind of experiment: Antimalarial activity against chloroquine-resistant Plasmodium yoelii N-67 infected in Swiss mouse assessed as suppression of parasitaemia level at 50 mg/kg, ip qd for 4 days relative to control. It counts as functional. Conditions: route intraperitoneal.
The nature of data set [26]: Elimination half life in Sprague-Dawley rat at 10 mg/kg, po. It counts as ADME, organism-based. Set-up: dose 10 mg/kg, route oral. Conditions: in vivo, read-out: beta t1/2 (converted).

≈ marks a conversion by molar mass, not a printed value. Calls of active or inactive are those of the source. The calls are words filed in the database; no cut-off is given here.

In general, Tmax refers to the time from dosing to the highest level. As a reminder, the IC50 is the point on the concentration scale where inhibition reaches its midpoint. By CL/F is commonly meant the apparent clearance, not corrected for the fraction that reaches the circulation. `CCN(CC)CCCC(C)Nc1ccnc2cc(Cl)ccc12` (stereo not given) [CHLOROQUINE]: in the data set on Plasmodium yoelii [1], the outcome was inactive. The Tmax with Rattus norvegicus [2] amounted to 0.91 h. The same molecule gave a Vd in the data set on Rattus norvegicus [3] of 1.49 L. Further, the MST with Plasmodium yoelii [4] was 16.5 days. Besides, the “beta t1/2” value in the data set with Rattus norvegicus [5] stood at 9.5 h. Moreover, in the data set on Plasma, the IC50 worked out at 3.95 µg/mL (≈ 12.3 µM) and the inhibition entry is “Dose-dependent effect”. This molecule showed a CL/F in data set [6] of 2.5 mL/min. For the same molecule, the outcome with Plasmodium yoelii [7] was inactive. In addition, the AUCt with Rattus norvegicus [8] was 30.147 ng·h/mL.

As a reminder, the Cmax is the maximum level reached in the sampled fluid or tissue. As a reminder, the AUC(0-t) is exposure summed from dosing to a finite time, without extrapolation to infinity. In the case of `CC(C)(C)n1nnnc1C(Nc1ccc(Nc2ccnc3cc(Cl)ccc23)cc1)c1ccc(Br)cc1` (stereo not given), the concentration for half-maximal inhibition (IC50) in the data set with Plasmodium falciparum [9] is 234 nM; in the data set with Plasmodium falciparum [15] it was 11.8 nM; with Plasma, 5.65 µg/mL (≈ 10 µM). The molecule also gave a CL/F in data set [10] of 32.3 mL/min. The values for the MST in the data set with Plasmodium yoelii [11] and in the data set on Plasmodium yoelii [16] were 26 days and 25.6 days, respectively. In addition, the Activity with Plasmodium yoelii [12] is recorded as 60%; in the data set on Plasmodium yoelii [18] it was 40%; in the data set with Plasmodium yoelii [19] it was 99.99%; with Plasmodium yoelii [20] it was 60%; in the data set on Plasmodium yoelii [23], 80%; with Plasmodium yoelii [25], 99.99%. The molecule also had a Cmax in data set [13] of 44.4 ng/mL. The “Ratio CC50/IC50” value in data set [14] is given as 2332.43. Also, the AUC(0-t) in data set [17] worked out at 704 ng·h/mL. Moreover, in the data set on Plasma, the inhibition result was “Dose-dependent effect”. Further, the Tmax in [21] worked out at 1.5 h. For the same molecule, the “Ratio IC50” value in the data set on Plasmodium falciparum [22] worked out at 19.8. Further, the Vd in the data set on Rattus norvegicus [24] came to 63.38 L. For the same molecule, in [26], the half-life was 22.6 h.
